In patent publication US20250387359A1, “COMPOUNDS AND METHODS FOR THE TREATMENT OF PARASITIC INFECTIONS” (THE BOARD OF TRUSTEES OF THE UNIVERSITY OF ILLINOIS, priority 2019, published 2025):
Like-named read-outs stand apart in the source and are kept apart here.

Key:
[1] = target: T1, recombinant CpLDH protein (Cryptosporidium parvum, UniProt Q9GT92, F198L/K295E/R251K); assay: CpLDH enzyme kinetics on substrates and co-factors; type: biochemical; conditions: for Km: pyruvate/NADH: reduction of pyruvate to lactate, lactate/NAD+: oxidation of lactate to pyruvate, 25° C.; for Kcat / Vmax: pyruvate/NADH: reduction, lactate/NAD+: oxidation
Description: (§1) Biochemical assays. The coding sequence of CpLDH was cloned from cDNA prepared from the AUCP-1 isolate of C. parvum, and the His-tagged CpLDH recombinant protein expressed in Escherichia coli, and purified in native form essentially as previously described (Int. J. Parasitol. 2017; 47(13), 867-874). Briefly, cDNA was prepared from total RNA extracted from the AUCP-1 isolate of C. parvum, and the coding sequencing of CpLDH (Genebank accession number AF274310.1) was PCR-amplified from the cDNA using a primer pair with a XhoI restriction site and a BamHI site. The PCR amplicon was cloned at the XhoI/BamHI site of the pET15b expression vector in-frame with the hexahistidine (His-tag) at the N-terminal and sequenced to confirm identity. The recombinant expression vector was transformed into protein expression E. coli BL21-CodonPlus-DE3-RIL (Stratagene). Transformed E. coli was cultured at 37° C. in Luria broth medium (supplemented with 100 μg/ml ampicillin and 34 μg/ml chloramphenicol) to an A600 of 0.8 followed by addition of 1 mM isopropyl-β-d-thiogalactopyranoside to induce protein expression. The expression E. coli was harvested and lysed under native conditions by sonicating in lysis buffer (50 mM NaH2PO4, 300 mM NaCl, 10 mM Imidazole, pH 8.0) containing a 1× EDTA-free protease inhibitor cocktail, 600 units benzonase and 30 kU lysozyme (EMD Millipore). The lysate was clarified by centrifugation and the His-tagged recombinant protein purified under native conditions by nickel-affinity chromatography according to the manufacturer's instructions (Novagen). The wash buffer used contained 50 mM NaH2PO4, 300 mM NaCl and 20 mM Imidazole, pH 8.0, while the elution buffer was composed of 50 mM NaH2PO4, 300 mM NaCl, 250 mM Imidazole, pH 8.0. The eluate was dialyzed using a buffer containing 5 mM Hepes-KOH (pH 7.8) and 0.5 mM DTT. The purity of the recombinant protein was determined by SDS/PAGE, and the concentration measured using a Qubit 3.0 fluorometer (Life technologies). […] On the other hand, the catalytic activity of CpLDH recombinant protein for the oxidation of lactate to pyruvate was determined by measuring the change in optical density of a 100 μl reaction mixture containing 100 mM lactate, 1 mM NAD^+, 100 mM Tris, pH 9.2, with varying concentrations of CpLDH recombinant protein at 25° C. […] In all assays, reaction mixtures without recombinant CpLDH protein were included as negative controls. All assays were performed in triplicate and repeated at least thrice. The change in optical density was measured every 15 seconds for a total of 2 minutes using a Spectra Max 384 Plus plate reader (Molecular Devices) at a wavelength of 340 nm.

[2] = target: T1, recombinant CpLDH protein; conditions: reported by Zhang et al., PLoS Pathog. 2015; cited from earlier work
HCT-8 cells = assay: Compound cytotoxicity assay (WST-1) in HCT-8 cells; type: cell-based, human
Description: Compound cytotoxicity assay. […] A colorimetric assay using the cell proliferation reagent WST-1 (Roche, USA) for the quantification of cell viability was performed. […] When the cells were confluent, the old medium was replaced with fresh medium with or without varying concentrations of chemical compound. After 24 h of culture, 10 μl of the cell proliferation reagent WST-1, (for quantification of cell viability) was added to each well, mixed and the plates incubated for 1 h at 37 C with 5% CO2 in the dark. […] Molecular Devices, USA).

[3] = target: T1, recombinant CpLDH protein; assay: biochemical; type: biochemical; conditions: 20 μM compound; 10 mM pyruvate, 1 mM NADH
Description: as §1
Screening compounds for inhibitory activity against CpLDH. The chemical compounds were obtained from the National Cancer Institute/Developmental Therapeutics Program Open Chemical Repository. They consisted of a diverse set of compounds (n=27) reported previously (Int J Parasitol Drugs Drug Resist. 2016; 6(1), 44-53), and a Mechanistic Set IV compounds (n=800). The compounds were reconstituted in dimethyl sulfoxide (DMSO) as stock solutions. Just before use, aliquots of the stock solutions were diluted in sterile distilled water to generate working solutions, such that the final amount of DMSO added to the reaction mixtures was less than 1% (V/V). The compounds were tested for their inhibitory effect against the enzymatic activity of recombinant His-tagged CpLDH for catalyzing the reduction of pyruvate to lactate. […] Control reactions without recombinant CpLDH protein were included. Reactions were performed in triplicate and repeated at least thrice. The change in optical density was measured every 15 seconds for a total of 2 minutes using a Spectra Max 384 Plus plate reader (Molecular Devices) at a wavelength of 340 nm.

[4] = HCT-8 cells, 24 h, WST-1, read-out: CYTOTOXICITY IC50

T1 sequence (Q9GT92 whole entry F198L/K295E/R251K): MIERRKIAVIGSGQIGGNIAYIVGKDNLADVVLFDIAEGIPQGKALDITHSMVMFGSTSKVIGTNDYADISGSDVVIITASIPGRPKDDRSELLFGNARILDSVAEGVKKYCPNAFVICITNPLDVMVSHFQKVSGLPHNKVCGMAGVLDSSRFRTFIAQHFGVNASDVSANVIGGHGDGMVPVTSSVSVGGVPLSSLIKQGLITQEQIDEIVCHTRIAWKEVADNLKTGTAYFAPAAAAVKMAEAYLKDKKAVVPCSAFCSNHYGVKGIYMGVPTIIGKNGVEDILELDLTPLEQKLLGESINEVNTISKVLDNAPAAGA

Row | SMILES | effect on catalytic activity of recombinant CpLDH [3] | IC50 (HCT-8 cells) [µM] | other results
1 | CC(O)C(=O)O (centres unmarked) [Lactate, lactate] | – | – | Km ([1]; read-out: Km): 39600 µM; Kcat [1]: 0.07 s⁻¹; Vmax [1]: 0.04 nmol⁻¹ µg⁻¹ min⁻¹; Kcat [2]: (0.66)* s^−1; Km [2]: 10800 µM; Vmax [2]: (0.53)* nmol^−1 · μg^−1 · min^−1
2 | NC(=O)C1=CN([C@@H]2O[C@H](COP(=O)(O)OP(=O)(O)OC[C@H]3O[C@@H](n4cnc5c(N)ncnc54)[C@H](O)[C@@H]3O)[C@@H](O)[C@H]2O)C=CC1 [NADH] | – | – | Km ([1]; read-out: Km): 734 µM; Vmax [1]: 6.29 nmol⁻¹ µg⁻¹ min⁻¹; Kcat [2]: (11.70)* s^−1; Km [2]: 92 µM; Vmax [2]: (9.33)* nmol^−1 · μg^−1 · min^−1
3 | NC(=O)c1ccc[n+]([C@@H]2O[C@H](COP(=O)([O-])OP(=O)(O)OC[C@H]3O[C@@H](n4cnc5c(N)ncnc54)[C@H](O)[C@@H]3O)[C@@H](O)[C@H]2O)c1 [NAD^+] | – | – | Km ([1]; read-out: Km): 56 µM; Kcat [1]: 0.11 s⁻¹; Vmax [1]: 0.07 nmol⁻¹ µg⁻¹ min⁻¹; Kcat [2]: (0.70)* s^−1; Km [2]: 62 µM; Vmax [2]: (0.56)* nmol^−1 · μg^−1 · min^−1
4 | CN(C)C(=S)SSC(=S)N(C)C [NSC1771] | significant (P<0.05) inhibitory effect | – | IC50 (HCT-8 cells; [4]): 110 µM
5 | CC1=C(CCC(=O)O)c2cc3nc(cc4[nH]c(cc4C)cc4[nH]c(cc1n2)cc4C)C(C)=C3CCC(=O)O [NSC18298] | significant (P<0.05) inhibitory effect | 81.9 | –
6 | O=C(O)[C@@H]1[C@H](C(=O)O)[C@]2(Cl)C(Cl)=C(Cl)[C@@]1(Cl)C2(Cl)Cl [NSC22225] | significantly (P<0.05) inhibited | 96.8 | –
7 | O=c1oc2cc(O)ccc2c2oc3cc(O)ccc3c12 [NSC22842] | significant (P<0.05) inhibitory effect | 83.5 | –
8 | CC(=O)Nc1ccc(-c2nc3ccccc3s2)cc1 [NSC33006] | significant (P<0.05) inhibitory effect | 87.3 | –
9 | O=S(=O)([O-])c1cc(N=Nc2cc(S(=O)(=O)[O-])c3ccccc3c2O)ccc1/C=C/c1ccc(N=Nc2cc(S(=O)(=O)[O-])c3ccccc3c2O)cc1S(=O)(=O)[O-].[Na+].[Na+].[Na+].[Na+] [NSC34931] | significant (P<0.05) inhibitory effect | 71.1 | –
10 | O=S(=O)(O)c1cc(N=[N+]([O-])c2cc(S(=O)(=O)O)c3ccccc3c2)cc2ccccc12 [NSC37031] | significantly (P<0.05) inhibited | 333 | –
11 | [Cl][Cd][Cl] [NSC51148] | significant (P<0.05) inhibitory effect | 39.6 | –
12 | Cc1cc2c(C(C)C)c(O)c(O)c(C=O)c2c(O)c1-c1c(C)cc2c(C(C)C)c(O)c(O)c(C=O)c2c1O [NSC56817] | significant (P<0.05) inhibitory effect | – | IC50 (HCT-8 cells; [4]): 64.2 µM
13 | N#CCCN(CCC#N)Cc1cc(O)c(CN(CCC#N)CCC#N)cc1O [NSC70925] | significant (P<0.05) inhibitory effect | 142 | –
14 | Cc1cc2c(c3oc(C4(C)OC4C4OC4C)cc(=O)c13)C(=O)c1c(O)c(C3CC(C)(N(C)C)C(O)C(C)O3)cc(C3CC(N(C)C)C(O)C(C)O3)c1C2=O (centres unmarked) [NSC70929] | significant (P<0.05) inhibitory effect | 181 | –
15 | Cc1ccc2c(sc(-c3ccc4c(c3)sc(-c3ccc(N(C)C)cc3)[n+]4C)[n+]2C)c1S(=O)(=O)[O-].[Cl-] [NSC71948] | significant (P<0.05) inhibitory effect | 106 | –
16 | O=[N+]([O-])c1ccc2c(N=Nc3c(O)ccc4ccccc34)c(O)cc(S(=O)(=O)[O-])c2c1.[Na+] [NSC73413] | significant (P<0.05) inhibitory effect | 220 | –
17 | Cc1cc(N(CCCl)CCCl)ccc1/C=N/NC(=O)Cc1cc(=O)oc2cc(O)ccc12 [NSC79688] | significant (P<0.05) inhibitory effect | – | IC50 (HCT-8 cells; [4]): 145 µM
18 | O=C(CC(=O)C(F)(F)F)c1csc2ccccc12 [NSC80396] | – | 91.9 | –
19 | CCOC(C)C(C=NNC(N)=S)=NNC(N)=S (centres unmarked) [NSC82116] | significant (P<0.05) inhibitory effect | 118 | –
20 | O=[N+]([O-])c1cccc2c(N=Nc3ccc4ccccc4c3O)c(O)cc(S(=O)(=O)O)c12.[Na+] [NSC85561] | significant (P<0.05) inhibitory effect | 103 | –
21 | CCOC(=O)Cc1c(C)c2cc(C(=O)c3ccccc3)c(O)cc2oc1=O [NSC115538] | – | 158 | –
22 | COc1ccc(/C=C/C(=O)Oc2cc(O)cc(O)c2)cc1 [NSC175296] | – | 156 | –
23 | O=C([CH-]C(=O)C(F)(F)F)c1ccccc1.O=C([CH-]C(=O)C(F)(F)F)c1ccccc1.O=C([CH-]C(=O)C(F)(F)F)c1ccccc1.O=C([CH-]C(=O)C(F)(F)F)c1ccccc1.[Eu+3].c1ccncc1 [NSC253995] | significant (P<0.05) inhibitory effect | 83 | –
24 | CC(O)CCC(=O)c1ccoc1 (centres unmarked) [NSC349438] | significant (P<0.05) inhibitory effect | 93.9 | –
25 | O=Cc1cc([N+](=O)[O-])no1 [NSC626433] | significant (P<0.05) inhibitory effect | 265 | –
26 | O=S(=O)(O)c1cc(N=Nc2cc(S(=O)(=O)O)c3cccnc3c2O)ccc1/C=C/c1ccc(N=Nc2cc(S(=O)(=O)O)c3cccnc3c2O)cc1S(=O)(=O)O [NSC638352] | significant (P<0.05) inhibitory effect | 116 | –
27 | O=C1/C(=C/c2ccccc2)CN(C(=O)/C=C/c2ccccc2)C/C1=C\c1ccccc1 [NSC638634] | – | 157 | –
28 | COc1ccc(CCN(C)CCCC(C#N)(c2ccc(OC)c(OC)c2)C(C)C)cc1OC.Cl (centres unmarked) [NSC657799] | significant (P<0.05) inhibitory effect | – | –
29 | COC(=O)C1=C(C(=O)OC)SC2(S1)C(C(=O)OC)=C(C(=O)OC)Sc1c2ssc1=O [NSC686349] | significant (P<0.05) inhibitory effect | 283 | –
30 | CC(=O)C(=O)O [Pyruvate, pyruvate] | – | – | Km [1]: 731 µM
